From patent US20210061684A1 (HIYOSHI CORPORATION, priority 2018, published 2021)
Read-outs that look alike come from different tables or passages of the source.

Tests used:
Legionella [1] = tested on: Legionella
Legionella [2] = tested on: Legionella; remark: listed apart in the source

## ammonium iron (II) sulfate hexahydrate
Legionella [1]
  effect on Legionella at low concentration: a sufficient effect was obtained
  growth of Legionella: greatly suppressed

## ammonium iron (III) sulfate dodecahydrate
Legionella [1]
  effect on Legionella at low concentration: a sufficient effect was obtained
  growth of Legionella: greatly suppressed

## iron (II) sulfate heptahydrate
Legionella [1]
  decrease of the number of bacteria: at least 3 orders of magnitude
  effect on Legionella at low concentration: the effect was observed
  growth of Legionella: greatly suppressed
Legionella [2]
  effect on Legionella at low concentration: an effect was obtained
  growth of Legionella: greatly suppressed

## iron (III) chloride hexahydrate
Legionella [2]
  effect on Legionella at low concentration: an effect was obtained
  growth of Legionella: greatly suppressed
